# Reference: ChEMBL document CHEMBL1201862, “PubChem BioAssay data set” (2004)
# The source made the active and inactive calls.
# How the values were obtained:
# [1] = molecular target: T1, Histone-lysine N-methyltransferase NSD2 (Homo sapiens, UniProt O96028); type: biochemical
# T1 sequence (O96028 whole entry): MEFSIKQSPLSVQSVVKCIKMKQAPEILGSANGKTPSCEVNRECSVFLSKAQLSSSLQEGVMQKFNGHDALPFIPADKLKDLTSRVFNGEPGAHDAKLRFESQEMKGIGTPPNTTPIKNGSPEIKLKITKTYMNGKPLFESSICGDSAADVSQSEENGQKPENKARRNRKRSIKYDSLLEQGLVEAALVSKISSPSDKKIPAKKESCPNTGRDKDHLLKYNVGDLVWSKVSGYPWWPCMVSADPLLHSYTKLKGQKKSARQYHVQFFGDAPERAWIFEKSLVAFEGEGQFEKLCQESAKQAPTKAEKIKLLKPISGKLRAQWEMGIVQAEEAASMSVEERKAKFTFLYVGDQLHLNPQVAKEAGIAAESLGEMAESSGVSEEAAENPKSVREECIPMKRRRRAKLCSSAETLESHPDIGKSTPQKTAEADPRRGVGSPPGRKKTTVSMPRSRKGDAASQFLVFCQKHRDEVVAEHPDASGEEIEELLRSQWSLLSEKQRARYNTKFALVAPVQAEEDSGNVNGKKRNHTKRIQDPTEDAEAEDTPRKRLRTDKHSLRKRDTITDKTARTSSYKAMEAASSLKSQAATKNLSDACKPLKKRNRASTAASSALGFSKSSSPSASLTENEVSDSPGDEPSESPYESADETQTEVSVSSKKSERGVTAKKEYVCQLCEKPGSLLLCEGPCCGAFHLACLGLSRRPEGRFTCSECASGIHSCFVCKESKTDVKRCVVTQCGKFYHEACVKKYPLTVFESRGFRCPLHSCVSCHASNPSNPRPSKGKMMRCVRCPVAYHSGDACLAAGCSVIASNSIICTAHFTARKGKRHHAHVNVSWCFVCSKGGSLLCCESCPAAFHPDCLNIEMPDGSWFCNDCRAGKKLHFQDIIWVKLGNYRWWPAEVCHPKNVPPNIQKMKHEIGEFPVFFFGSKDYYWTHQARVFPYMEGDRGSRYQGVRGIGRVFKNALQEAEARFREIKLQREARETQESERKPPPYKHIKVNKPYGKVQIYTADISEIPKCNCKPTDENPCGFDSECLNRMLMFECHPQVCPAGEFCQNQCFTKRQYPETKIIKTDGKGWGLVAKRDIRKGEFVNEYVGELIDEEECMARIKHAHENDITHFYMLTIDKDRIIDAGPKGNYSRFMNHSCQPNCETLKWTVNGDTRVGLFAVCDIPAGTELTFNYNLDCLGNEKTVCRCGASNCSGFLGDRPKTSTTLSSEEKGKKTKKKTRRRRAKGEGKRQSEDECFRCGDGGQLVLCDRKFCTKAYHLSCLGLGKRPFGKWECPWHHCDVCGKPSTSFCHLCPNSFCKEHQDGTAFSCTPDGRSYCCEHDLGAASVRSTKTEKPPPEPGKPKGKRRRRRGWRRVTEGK
# Caspase-6 = molecular target: T2, Caspase-6 (Homo sapiens, UniProt P55212); experiment: inhibition of CASP6 peptide cleavage – biochemical, VEID-R110 fluorescence, cherry-pick, dose response (AID 720632)
# T2 sequence (P55212 whole entry): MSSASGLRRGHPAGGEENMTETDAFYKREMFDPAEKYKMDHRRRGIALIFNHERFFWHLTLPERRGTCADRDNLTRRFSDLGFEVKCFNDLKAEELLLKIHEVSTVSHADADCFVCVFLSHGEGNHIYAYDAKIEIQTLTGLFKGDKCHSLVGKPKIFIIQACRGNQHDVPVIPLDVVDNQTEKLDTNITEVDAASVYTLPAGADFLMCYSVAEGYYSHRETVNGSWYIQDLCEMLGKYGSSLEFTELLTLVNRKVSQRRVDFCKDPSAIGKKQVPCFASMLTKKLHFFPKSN
# [2] = molecular target: FAD-linked sulfhydryl oxidase ALR (Homo sapiens, UniProt P55789); experiment: ALR-catalysed DTT oxidation blockers – biochemical, H2O2 detection, luminescence, cherry-pick, dose response (AID 493248)
# INS1 = experiment: INS-1E survival protection against cytokine death – cell-based, luminescence, retest, dose response (AID 449756); type: functional; conditions: Rattus norvegicus;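 note: cell death triggered by IL-1 beta plus TNF-alpha plus IFN-gamma mixture; protective hits raise ATP signal compared with cytokine alone wells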
# [3] = viability of PTEN-deleted HCT116 cells – cell-based, HCT116 PTEN knockout, dose response (AID 1047); type: functional;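 note: HCT116 colon tumor cells with PTEN knocked out; cells exposed to compound for 60 hours before readout; potency for loss of cell viability measured by luminescence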
# [4] = Luminescence Cell-Based Dose Retest to Confirm Inhibitors of Cancer Stem Cells. [Related pubchem assays (depositor defined):AID2717, AID2721]; type: functional; conditions: Homo sapiens
# [5] = viability of HCT116 lacking mutant beta-catenin – cell-based, human colon tumor, dose response (AID 1045); type: functional;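 note: HCT116 colon tumor cells with beta catenin knocked out; cells exposed to compound for 60 hours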
# [6] = molecular target: T3, Heat shock factor protein 1 (Mus musculus, UniProt P38532); experiment: enhancement of HSF1-driven luciferase signal – cell-based, NIH3T3, luminescence, dose retest, confirmation (AID 435004); type: functional;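 note: stress induced by proteasome inhibitor MG132 added 30 min after compound; luciferase reporter driven by HSF1 response element in NIH3T3 cells; actives raise luminescence as potentiators of the MG132 stress response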
# T3 sequence (P38532 whole entry): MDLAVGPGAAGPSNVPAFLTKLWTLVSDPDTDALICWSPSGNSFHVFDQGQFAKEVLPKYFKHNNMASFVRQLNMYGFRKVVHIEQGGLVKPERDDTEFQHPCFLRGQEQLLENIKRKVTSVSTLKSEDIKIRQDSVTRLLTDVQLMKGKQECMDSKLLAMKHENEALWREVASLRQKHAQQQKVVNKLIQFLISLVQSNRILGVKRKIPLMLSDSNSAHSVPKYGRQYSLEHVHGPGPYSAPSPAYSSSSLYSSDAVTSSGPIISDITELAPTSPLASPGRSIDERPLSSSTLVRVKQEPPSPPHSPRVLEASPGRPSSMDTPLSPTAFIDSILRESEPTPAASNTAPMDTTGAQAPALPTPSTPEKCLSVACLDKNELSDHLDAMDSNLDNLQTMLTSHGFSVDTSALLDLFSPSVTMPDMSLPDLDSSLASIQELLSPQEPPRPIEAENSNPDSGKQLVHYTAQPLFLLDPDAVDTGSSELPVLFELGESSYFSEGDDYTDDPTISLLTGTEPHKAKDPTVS
# cells [7] = experiment: cells
# [8] = viability of uninfected HEp-2 cells – cell-based, HTS, cytotoxicity control for RSV inhibitor project, dose response (AID 2410); type: functional; conditions: human respiratory syncytial virus
# [9] = OVCAR-3 cell viability loss – plate reader, dry powder samples, PAX8 inhibitor project, dose response (AID 743044); type: functional, cell-based
# Paired box protein Pax-8 = Paired box protein Pax-8 (Homo sapiens, UniProt Q06710); experiment: PAX8 transcriptional activity inhibition in RMG-I – RMG-I cells, luciferase, cherry-pick, dose response (AID 687027); type: functional, cell-based;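 note: luciferase reporter driven by Pax8 target thyroperoxidase promoter measured by SteadyGlo luminescence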
# Prothrombin = Prothrombin (Homo sapiens, UniProt P00734); experiment: Thrombin 1536 HTS Dose Response Confirmation. [Related pubchem assays: 1046 (Thrombin 1536 HTS; hits were confirmed in this assay)]; type: functional
# Vero [10] = experiment: cells; type: functional, cell-based; conditions: Chlorocebus sabaeus
# Vero [11] = experiment: cells; type: functional; conditions: Chlorocebus sabaeus
# [12] = molecular target: T4, Replicative DNA helicase DnaB (Mycobacterium tuberculosis, UniProt P9WMR3); experiment: DnaB intein splicing inhibitors, dose response, biochemical, cell-free fluorescence (AID 449749); type: functional
# T4 sequence (P9WMR3 whole entry): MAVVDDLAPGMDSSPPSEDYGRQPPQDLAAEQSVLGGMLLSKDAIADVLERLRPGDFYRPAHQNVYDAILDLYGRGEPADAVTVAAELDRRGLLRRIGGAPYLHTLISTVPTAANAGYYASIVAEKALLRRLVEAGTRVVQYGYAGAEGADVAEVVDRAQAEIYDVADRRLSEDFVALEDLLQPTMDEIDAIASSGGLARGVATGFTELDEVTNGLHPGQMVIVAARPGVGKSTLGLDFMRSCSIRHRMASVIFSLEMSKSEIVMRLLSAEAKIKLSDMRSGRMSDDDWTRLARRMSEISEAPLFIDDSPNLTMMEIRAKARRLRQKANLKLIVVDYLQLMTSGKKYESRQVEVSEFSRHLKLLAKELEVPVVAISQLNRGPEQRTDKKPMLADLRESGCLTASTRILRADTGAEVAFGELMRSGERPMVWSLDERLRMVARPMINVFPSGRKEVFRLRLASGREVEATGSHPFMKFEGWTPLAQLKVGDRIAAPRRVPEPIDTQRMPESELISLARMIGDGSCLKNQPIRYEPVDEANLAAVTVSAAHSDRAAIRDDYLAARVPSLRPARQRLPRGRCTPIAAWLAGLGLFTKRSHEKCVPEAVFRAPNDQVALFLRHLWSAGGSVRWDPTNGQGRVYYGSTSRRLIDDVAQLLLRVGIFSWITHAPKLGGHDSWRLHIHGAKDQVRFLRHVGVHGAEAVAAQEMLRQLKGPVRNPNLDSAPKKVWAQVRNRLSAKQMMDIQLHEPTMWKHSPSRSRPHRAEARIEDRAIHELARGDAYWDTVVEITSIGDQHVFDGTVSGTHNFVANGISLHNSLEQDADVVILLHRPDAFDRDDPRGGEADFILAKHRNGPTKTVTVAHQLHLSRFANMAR
# Protein RecA = molecular target: T5, Protein RecA (Mycobacterium tuberculosis, UniProt P9WHJ3); experiment: Fluorescence Cell-Free Homogeneous Dose Retest to Identify Inhibitors of RecA-Intein Splicing Activity. [Related pubchem assays (depositor defined):AID2097, AID2223, AID489010, AID492950]; type: functional
# T5 sequence (P9WHJ3 whole entry): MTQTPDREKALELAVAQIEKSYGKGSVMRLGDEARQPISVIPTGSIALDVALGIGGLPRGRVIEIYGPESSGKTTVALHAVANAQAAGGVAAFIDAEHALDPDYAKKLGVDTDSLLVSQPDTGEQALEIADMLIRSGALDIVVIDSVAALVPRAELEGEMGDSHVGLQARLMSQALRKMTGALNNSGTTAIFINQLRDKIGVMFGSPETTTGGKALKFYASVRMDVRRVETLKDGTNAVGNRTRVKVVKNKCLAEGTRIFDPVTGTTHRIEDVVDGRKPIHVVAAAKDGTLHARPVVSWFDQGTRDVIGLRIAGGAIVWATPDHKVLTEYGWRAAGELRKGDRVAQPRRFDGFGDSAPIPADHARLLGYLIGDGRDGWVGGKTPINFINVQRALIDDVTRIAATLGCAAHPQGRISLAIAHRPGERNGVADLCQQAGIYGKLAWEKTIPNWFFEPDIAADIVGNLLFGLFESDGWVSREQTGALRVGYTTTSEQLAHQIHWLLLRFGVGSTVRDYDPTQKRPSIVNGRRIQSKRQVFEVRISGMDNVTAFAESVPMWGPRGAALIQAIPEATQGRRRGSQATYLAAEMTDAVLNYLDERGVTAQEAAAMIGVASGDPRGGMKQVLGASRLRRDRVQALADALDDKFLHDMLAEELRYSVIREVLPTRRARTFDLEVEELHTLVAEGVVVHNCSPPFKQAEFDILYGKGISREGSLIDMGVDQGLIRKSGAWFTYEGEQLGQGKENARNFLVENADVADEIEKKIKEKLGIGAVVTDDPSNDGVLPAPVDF
# [13] = viability loss in THP-1 monocytes – THP-1 cells, cytotoxicity control for Vif-APOBEC3G degradation inhibitor project, dose response (AID 1117359); type: functional; conditions: THP-1
# [14] = molecular target: T3, Heat shock factor protein 1; experiment: decrease of HSF1-responsive luciferase luminescence – cell-based, NIH3T3, dose retest, confirmation (AID 2382); type: functional;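 note: NIH3T3 fibroblasts with HSF1-driven luciferase reporter stressed by proteasome inhibitor MG132; luminescence from HSF1-driven luciferase expression after 8 hours of MG132 stress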
# [15] = NIH3T3 cell viability loss – ATP luminescence, mouse fibroblasts, counter-screen, dose response (AID 2010); type: functional, cell-based;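 note: cells exposed to compound for about 90 hours before reading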
# [16] = Trypanosoma cruzi growth suppression in host cells – NIH3T3 host cells, beta-gal luminescence, confirmation (AID 2044); type: functional, cell-based;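 note: intracellular parasites grown in NIH/3T3 mouse fibroblasts as host cells; luminescent beta-galactosidase reporter signal from transgenic T. cruzi replicating inside host cells; inhibitors lower the luminescence signal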
# cells [17] = experiment: cells; remark: listed apart in the source
# Estrogen receptor beta = Estrogen receptor beta (Homo sapiens, UniProt Q92731);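 note: recombinant ER-beta bound to coactivator SRC1 peptide in presence of estradiol agonist; inhibitors block coactivator peptide binding and lower the FRET signal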
# Chain of Estrogen receptor beta (Q92731 whole entry): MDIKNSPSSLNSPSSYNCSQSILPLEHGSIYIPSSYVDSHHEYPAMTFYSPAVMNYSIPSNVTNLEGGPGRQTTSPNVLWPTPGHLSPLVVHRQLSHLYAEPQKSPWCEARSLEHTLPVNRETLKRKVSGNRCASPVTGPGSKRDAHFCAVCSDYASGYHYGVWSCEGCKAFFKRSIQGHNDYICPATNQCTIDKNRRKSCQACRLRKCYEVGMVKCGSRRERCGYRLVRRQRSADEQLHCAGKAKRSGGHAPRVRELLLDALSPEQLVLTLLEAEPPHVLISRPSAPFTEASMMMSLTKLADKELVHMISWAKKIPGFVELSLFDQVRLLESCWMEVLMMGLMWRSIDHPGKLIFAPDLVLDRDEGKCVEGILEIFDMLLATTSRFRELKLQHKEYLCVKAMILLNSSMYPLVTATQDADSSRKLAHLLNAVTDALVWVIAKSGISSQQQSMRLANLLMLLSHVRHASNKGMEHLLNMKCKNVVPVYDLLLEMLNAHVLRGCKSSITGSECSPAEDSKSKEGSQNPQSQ
# Chain of FAD-linked sulfhydryl oxidase ALR (P55789 whole entry): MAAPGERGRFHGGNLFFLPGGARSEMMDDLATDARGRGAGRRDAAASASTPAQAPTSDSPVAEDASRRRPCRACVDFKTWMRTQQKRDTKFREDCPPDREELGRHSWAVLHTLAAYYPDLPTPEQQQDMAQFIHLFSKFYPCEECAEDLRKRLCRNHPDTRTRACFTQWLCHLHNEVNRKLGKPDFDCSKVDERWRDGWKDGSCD
# Chain of Paired box protein Pax-8 (Q06710 whole entry): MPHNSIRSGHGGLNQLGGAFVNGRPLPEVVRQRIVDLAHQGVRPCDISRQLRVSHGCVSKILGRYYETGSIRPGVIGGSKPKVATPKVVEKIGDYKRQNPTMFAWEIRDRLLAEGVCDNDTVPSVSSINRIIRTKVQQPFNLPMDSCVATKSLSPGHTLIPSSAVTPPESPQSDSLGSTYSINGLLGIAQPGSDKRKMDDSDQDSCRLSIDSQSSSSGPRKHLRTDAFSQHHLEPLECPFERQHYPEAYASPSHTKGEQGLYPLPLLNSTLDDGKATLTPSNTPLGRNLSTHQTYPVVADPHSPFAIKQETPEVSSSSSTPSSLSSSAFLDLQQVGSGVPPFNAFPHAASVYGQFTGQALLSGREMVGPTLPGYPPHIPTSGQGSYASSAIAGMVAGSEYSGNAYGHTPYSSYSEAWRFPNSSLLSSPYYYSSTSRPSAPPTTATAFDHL
compound,measurement,setting,value
CCc1ccc2cccc3c2c1N=CN3C,AC50,[1],7.21 µM (active)
same,AC50,Caspase-6,6.79 µM (active)
same,AC50,[2],240 nM (active)
O=C(NCc1cccnc1)/C(=C/c1ccc(-c2cccc(Cl)c2)o1)S(=O)(=O)c1ccccc1,AC50,INS1,6.06 µM (active)
same,EC50,[3],2.02 µM (active)
same,AC50,[4],1.73 µM (active)
same,EC50,[5],2.02 µM (active)
Cc1ccc(N(CCCCN2C(=O)c3ccccc3C2=O)C(=O)c2cccc([N+](=O)[O-])c2)cc1,EC50,[6],33.2 µM (active)
same,IC50,cells [7],15.8 µM (active)
same,CC50,[8],> 50 µM (active)
C[C@@H]1CN([C@H](C)CO)C(=O)c2cc(NS(=O)(=O)c3cccs3)ccc2O[C@@H](C)CCCCO[C@H]1CN(C)Cc1ccc(Cl)c(Cl)c1,AC50,[9],46.5 µM (active)
same,AC50,Paired box protein Pax-8,9.2 µM (active)
Cc1nc2c(=O)[nH]c(=S)[nH]c2nc1O,AC50,[1],16.2 µM (active)
same,AC50,Caspase-6,6.58 µM (active)
COc1ccccc1N=C(S)N(Cc1ccco1)Cc1cc2cc(C)ccc2nc1O,IC50,Prothrombin,> 50 µM (not active)
CCCc1c(NC(=O)Nc2ccc(F)cc2)cnn1-c1ccccc1,IC50,cells [7],4.51 µM (active)
same,IC50,Vero [10],2.12 µM (active)
same,CC50,[8],21.3 µM (active)
same,CC50,Vero [11],> 25 µM (active)
CNC(=O)/C(C#N)=C/c1c(N(Cc2ccccc2)Cc2ccccc2)nc2c(C)cccn2c1=O,IC50,cells [7],11.3 µM (active)
same,CC50,[8],10.1 µM (active)
same,AC50,[12],> 120 µM (inactive)
same,EC50,Protein RecA,104 µM (active)
CCc1ccc(NC2CC(=O)N(c3ccc(OC)cc3OC)C2=O)cc1 (stereo not drawn),IC50,Prothrombin,> 50 µM (not active)
CCOc1ccccc1NC(=O)Cn1c(-c2ccc(Cl)cc2)noc1=O,CC50,[13],> 40 µM (active)
same,EC50,[14],> 195 µM (not active)
CC(C)NC(=O)CSc1nc(-c2ccccc2)cs1,IC50,Prothrombin,> 50 µM (not active)
C=C(C)C1CC=C(CN2CCN(Cc3ccccc3)CC2)CC1 (stereo not drawn),EC50,[15],> 60 µM (not active)
same,EC50,[16],< 100 nM (active)
same,EC50,cells [17],189 nM (active)
Cn1nc(CC(=O)Nc2ncc(Br)s2)c2ccccc2c1=O,IC50,Estrogen receptor beta,> 50 µM (not active)
O=C(/C=C/c1ccc(Cl)cc1)c1cccnc1,EC50,[3],1.75 µM (active)
same,EC50,[5],0.793 µM (active)
